Source: patent US9029419B2, “Use of zinc N-acetyltaurinate” (TRI-INOV, priority 2008, dated 2015)
Where two headings read alike, the source gives them in different places.

What was measured:
ARPE-19 cells [1] = test: Assay 3: cytoprotective effect of ATA-Zn on cells subjected to various concentrations of H2O2; format: cell-based, human; details: 10^−8 M, one and a half hours before exposure to H2O2
Protocol: (§1) In the assays hereinafter described, the ARPE-19 human retinal pigmented epithelial cell line was used.
(§2) In order to assess the protective role of ATA-Zn with respect to an oxidative stress of the retinal epithelium, the following experimental model was used.
(§3) ARPE-19 cells grown in an appropriate medium [mixture of DMEM [Dulbecco's modified Eagle's medium) and Ham's F12 medium] containing 10% of heat-inactivated fetal calf serum; 2 mM glutamine; 0.1 mM of minimum essential medium; a solution of non-essential amino acids and gentamicin sulfate, in 96-well microplates, were exposed to various concentrations of an aqueous hydrogen peroxide solution (H2O2) being toxic for these cells. The cellular levels of ATP were measured using the commercially available assay which measures ATP production, “ATPLite-M”, manufactured by Perkin Elmer, using a multiplate reader from Perkin Elmer Life Sciences, Boston, Mass. […]
(§4) The protective effect of ATA-Zn was assayed by treating the ARPE-19 cells with ATA-Zn and subsequently exposing them to the aqueous hydrogen peroxide solution. […] The results of these assays are reported in FIGS. 5 to 9, which are graphs showing the ATP production, expressed as a percentage relative to the ATP production by control cells (having received only the carrier) as a function of the concentrations of H2O2, of ATA-Zn or of the comparative substances. […]

ARPE-19 cells [2] = test: Assay 1: effective doses of ATA-Zn and its toxicity, ATP production (ATPLite-M); format: cell-based, human; details: 24 hours after addition
Protocol: as §1, §3
The ARPE-19 cells were treated with various concentrations of ATA-Zn (10^−3 to 10^−9 M) dissolved in a carrier consisting of a serum-free culture medium containing 0.01% of DMSO (concentration known not to affect cell viability). The ATP production by the ARPE-19 cells thus treated was determined 24 hours after the addition of ATA-Zn. The ATP production by control cells treated only with the serum-free culture medium containing 0.01% of DMSO (carrier) was also determined.

ARPE-19 cells [3] = test: Comparative assay No. 2: cytoprotective effect in oxidizing medium (H2O2); format: cell-based, human; details: for protection against oxidative stress (ATP production): then H2O2 700 μM for 24 hours; for effect on the production of ATP by ARPE-19 cells treated and then exposed to H2O2: summary statement
Protocol: The cells were then subjected, for 24 hours, to treatment with aqueous hydrogen peroxide solution at 700 μM.

ARPE-19 cells [4] = test: Comparative assay No. 3: comparison with the known antioxidants DHA, lutein and zeaxanthin; format: cell-based, human
Protocol: as §1
(§5) ARPE-19 cells grown in an appropriate medium [mixture of DMEM [Dulbecco's modified Eagle's medium) and Ham's F12 medium] containing 10% of heat-inactivated fetal calf serum; 2 mM glutamine; 0.1 mM of minimum essential medium; a solution of non-essential amino acids and gentamicin sulfate, in 96-well microplates, were exposed to various concentrations of an aqueous hydrogen peroxide solution (H2O2) being toxic for these cells. The cellular levels of ATP were measured using the commercially available assay which measures ATP production, “ATPLite-M”, manufactured by Perkin Elmer, using a multiplate reader from Perkin Elmer Life Sciences, Boston, Mass. This assay is based on the principle that ATP production is dependent on cell viability and that a decrease or increase in ATP reflects a corresponding alteration in cell viability.
as §4

lipofuscin accumulation = test: Intracellular accumulation of lipofuscin in retina, prostate and hippocampus of aged rats (fluorescence image analysis); format: in vivo, Sprague-Dawley albino rats; details: 40 mg/kg per os once a day for 4 weeks, vs control animals (carrier)
Protocol: The activity of ATA-Zn on aging was measured by determining the amount of lipofuscin in certain tissues in aged rats (retina, prostate and hippocampus).
Male Sprague-Dawley albino rats, aged 16 months, were placed in standard plastic cages, in groups of 5, with water and food ad libitum. The living conditions of the animals were the following: day:night light cycle, 12:12 h, constant temperature of 22±2° C. and relative humidity of 60%.
For the chronic treatment, ATA-Zn was administered to the rats, per os, once a day, for 4 weeks, at the dose of 40 mg/kg (n=6). The control animals received only water (carrier) for the same period of time (n=6). 24 hours after the end of the treatment, the rats were anesthetized with equithesin ([…], i.p.) and perfused transcardially with 1% paraformaldehyde and 1.25% glutaraldehyde in a 0.1% sodium cacodylate buffer (pH 7.4) obtained from arsenous anhydride and potassium acetate.
The samples of the tissues taken (retina, prostate and hippocampus) were then cut into small pieces (1 mm^3) on a cryostat and added to a mixture of formaldehyde and glutaraldehyde in a cacodylate buffer for 2 hours. The samples were then mixed with osmium tetroxide, dehydrated in increasing concentrations of acetone and toluene and, finally, embedded into blocks of resin (EPON resin). The pieces of tissues thus processed were examined under an Olympus BX-60 fluorescence microscope.
The fluorescence in all the tissues was quantified using an image analysis system (KS 300; Karl Zeiss). The analysis was carried out by measuring the percentage surface area hidden by the presence of fluorescence and compared with a standard zone of 2000 μm^2 (lipofuscin fluorescence expressed as % surface area relative to the standard zone) using an ×40 objective magnification and a Zeiss Sound Vision digital microscope video camera (total enlargement on the computer screen ×7500). The values measured in the areas with no fluorescence in the pieces of tissues were subtracted, as background noise, from the resulting binary image. […]

ARPE-19 cells [5] = test: Assay 2: anti-oxidative stress cytoprotective effect, ATP production after H2O2; format: cell-based, human; details: 1.5 hours before H2O2 700 μm
Protocol: as §1, §2, §5
The protective effect of ATA-Zn was assayed by treating the ARPE-19 cells with ATA-Zn and subsequently exposing them to the aqueous hydrogen peroxide solution. Various exposure times and various doses were used. Comparative assays were also carried out. The results of these assays are reported in FIGS. 5 to 9, which are graphs showing the ATP production, expressed as a percentage relative to the ATP production by control cells (having received only the carrier) as a function of the concentrations of H2O2, of ATA-Zn or of the comparative substances.
In this assay, the concentrations of ATA-Zn which induce a significant ATP production via the ARPE-19 cells were used, and then, after 1.5 hours, the cells were subjected to a treatment with H2O2 at the toxic dose of 700 μm.

[6] = Solubility of the prepared product; format: physicochemical; details: white powder
ARPE-19 cells [7] = test: Comparative assay No. 1: effective doses of taurine and ZnSO4, ARPE-19 cell proliferation; format: cell-based, human
Protocol: as §1, §5
In this assay, the effect of taurine or of N-acetylated taurine and of zinc sulfate on ARPE-19 cell proliferation was compared.

solubility in ethanol [6] | solubility in water [6] | Compound | protection against oxidative stress induced by various concentrations of H2O2 (ATP production) (ARPE-19 cells [1]) | ATP production / cell viability (toxicity) (ARPE-19 cells [2]; 10^−3 M) | ATP production / cell viability (ARPE-19 cells [2]; 10^−9 M, 10^−8 M and 10^−7 M) | protection against oxidative stress (ATP production) (ARPE-19 cells [3]; pretreatment) | effect on the production of ATP by ARPE-19 cells treated and then exposed to H2O2 (ARPE-19 cells [3]) | effect on ATP production compared with DHA, lutein and zeaxanthin (ARPE-19 cells [4]) | effect on ATP production compared with DHA, lutein and zeaxanthin (ARPE-19 cells [4]; listed as zinc N-acetyltaurinate) | lipofuscin fluorescence (% surface area) in the hippocampus (lipofuscin accumulation) | lipofuscin fluorescence (% surface area) in the prostate (lipofuscin accumulation) | lipofuscin fluorescence (% surface area) in the retina (lipofuscin accumulation) | protection against oxidative stress (ATP production) (ARPE-19 cells [5]; 10^−7 M) | protection against oxidative stress (ATP production) (ARPE-19 cells [5]; 10^−8 M) | protection against oxidative stress (ATP production) (ARPE-19 cells [5]; 10^−9 M) | proliferative effect on the ARPE-19 cells (ARPE-19 cells [7]; 2 mM and 10^−8 M) | protection against oxidative stress (ATP production) (ARPE-19 cells [3]; 30 μM pretreatment) | protection against oxidative stress (ATP production) (ARPE-19 cells [3]; 10^−8 M pretreatment) | proliferative effect on the ARPE-19 cells (ARPE-19 cells [7]; 30 μM and 10^−8 M)
poorly soluble in ethanol | soluble in water | zinc N-acetyltaurinate [ATA-Zn] | capable of protecting the ARPE-19 cells against oxidative stress | toxic | capable of inducing an increase in cell viability | protect the ARPE-19 cells against oxidative stress | has an effect | effect comparable to the known antioxidants | virtually identical to or even greater than | significant reduction | significant reduction | significant reduction | potentiates the toxic effect of H2O2 | capable of protecting the cells against oxidative stress | not effective | – | – | – | –
– | – | NCCS(=O)(=O)O [taurine] | – | – | – | not capable of protecting the cells | no effect | – | – | – | – | – | – | – | – | neither zinc sulfate nor taurine at the various concentrations used were capable of inducing a significant proliferative effect | – | – | –
– | – | O=S(=O)([O-])[O-].[Zn+2] [zinc sulfate] | – | – | – | – | no effect | – | – | – | – | – | – | – | – | – | not capable of protecting the cells | protective effect which is less than that of ATA-Zn | neither zinc sulfate nor taurine at the various concentrations used were capable of inducing a significant proliferative effect
